According to patent US20150284394A1, “INHIBITORS OF BRUTON'S TYROSINE KINASE” (HOFFMANN-LA ROCHE INC., priority 2012, published 2015):

Tests used:
B cells in human blood = assay: Inhibition of B cell activation in whole blood measured by CD69 expression; format: cell-based; details: anti-IgM stimulation, 20 hours, CD69-positive cells that are also CD20-positive, read-out: HWB IC50
Protocol: A procedure to test the ability of Btk inhibitors to suppress B cell receptor-mediated activation of B cells in human blood is as follows:
Human whole blood (HWB) is obtained from healthy volunteers, with the following restrictions: 24 hr drug-free, non-smokers. Blood is collected by venipuncture into Vacutainer tubes anticoagulated with sodium heparin. Test compounds are diluted to ten times the desired starting drug concentration in PBS (20×), followed by three-fold serial dilutions in 10% DMSO in PBS to produce a nine point dose-response curve. 5.5 μl of each compound dilution is added in duplicate to a 2 ml 96-well V bottom plate (Analytical Sales and Services, #59623-23); 5.5 μl of 10% DMSO in PBS is added to control and no-stimulus wells. HWB (100 μl) is added to each well, and after mixing the plates are incubated at 37 C, 5% CO2, 100% humidity for 30 minutes. Goat F(ab′)2 anti-human IgM (Southern Biotech, #2022-14) (10 μl of a 500 μg/ml solution, 50 μg/ml final concentration) is added to each well (except the no-stimulus wells) with mixing and the plates are incubated for an additional 20 hours.
At the end of the 20 hour incubation, samples are incubated with florescent-probe-labeled anti-bodies (15 μl PE Mouse anti-Human CD20, BD Pharmingen, #555623, and/or 20 ul APC Mouse anti-Human CD69, BD Pharmingen #555533) for 30 minutes, at 37 C, 5% CO2, 100% humidity. Included are induced control, unstained and single stains for compensation adjustments and initial voltage settings. Samples are then lysed with 1 ml of 1× Pharmingen Lyse Buffer (BD Pharmingen #555899), and plates are centrifuged at 1800 rpm for 5 minutes. Supernatants are removed via suction and the remaining pellets are lysed again with another 1 ml of 1× Pharmingen Lyse Buffer, and plates are spun down as before. Supernatants are aspirated and remaining pellets are washed in FACs buffer (PBS+1% FBS). After a final spin, the supernantants are removed and pellets are resuspended in 180 μl of FACs buffer. Samples are transferred to a 96 well plate suitable to be run on the HTS 96 well system on the BD LSR II flow cytometer.
Using appropriate excitation and emission wavelengths for the fluorophores used, data are acquired and percent positive cell values are obtained using Cell Quest Software. Results are initially analyzed by FACS analysis software (Flow Jo). […] The IC50 values are calculated using XLfit software version 3, equation 201.

Bruton's Tyrosine Kinase = Bruton's Tyrosine Kinase (Homo sapiens, UniProt Q06187); assay: Bruton's Tyrosine Kinase (BTK) Inhibition TR-FRET competition assay; format: binding; details: inactivated state of BTK; Kinase Tracer 178; 18-24 h at 14° C
Chain of Bruton's Tyrosine Kinase (Q06187 whole entry): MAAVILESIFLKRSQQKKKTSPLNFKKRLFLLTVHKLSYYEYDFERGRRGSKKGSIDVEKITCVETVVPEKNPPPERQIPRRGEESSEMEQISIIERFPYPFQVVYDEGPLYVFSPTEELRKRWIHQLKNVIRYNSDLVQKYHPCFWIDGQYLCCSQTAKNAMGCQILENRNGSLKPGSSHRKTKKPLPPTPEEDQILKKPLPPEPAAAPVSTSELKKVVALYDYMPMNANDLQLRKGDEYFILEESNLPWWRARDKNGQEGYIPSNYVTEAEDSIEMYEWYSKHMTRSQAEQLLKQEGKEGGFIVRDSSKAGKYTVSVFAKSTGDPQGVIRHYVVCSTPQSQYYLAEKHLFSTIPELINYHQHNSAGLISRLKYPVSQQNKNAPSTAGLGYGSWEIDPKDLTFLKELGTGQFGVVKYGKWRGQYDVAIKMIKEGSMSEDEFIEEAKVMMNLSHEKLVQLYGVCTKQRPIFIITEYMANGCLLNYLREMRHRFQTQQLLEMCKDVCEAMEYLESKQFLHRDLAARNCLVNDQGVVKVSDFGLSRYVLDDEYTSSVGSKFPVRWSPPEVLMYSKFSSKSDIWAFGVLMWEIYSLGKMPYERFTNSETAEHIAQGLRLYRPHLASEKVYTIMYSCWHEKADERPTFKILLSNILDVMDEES
Protocol: This BTK competition assay measures compound potency (IC50) for the inactivated state of Bruton's Tyrosine Kinase using FRET (Forster/Fluorescence Resonance Energy Transfer) technology. The BTK-Eu complex was incubated on ice one hour prior to use at a starting concentration of 50 nM BTK-Bioease™: 10 nM Eu-streptavidin (Perkin-Elmer Catalog# AD0062). The assay buffer consisted of 20 mM HEPES (pH 7.15), 0.1 mM DTT, 10 mM MgCl2, 0.5 mg/ml BSA with 3% Kinase Stabilizer (Fremont Biosolutions, Catalog # STB-K02). After 1 h, the reaction mixture from above was diluted 10 fold in assay buffer to make 5 nM BTK: 1 nM Eu-Streptavidin complex (donor fluorophore). […] of a mixture of 0.11 nM BTK-Eu and 0.11 nM Kinase Tracer 178 (Invitrogen, Catalog # PV5593,) with BTK-Eu alone as no negative control, was then dispensed into 384-well flat bottom plates (Greiner, 784076). Compounds to be tested in assay were prepared as 10× concentrations and serial dilution in half-log increments was performed in DMSO so as to generate 10 point curves. To initiate the FRET reaction, compounds prepared as 10× stock in DMSO was added to the plates and the plates were incubated 18-24 h at 14° C.
After the incubation the plates were read on a BMG Pherastar Fluorescent plate reader (or equivalent) and used to measure the emission energy from the europium donor fluorophore (620 nm emission) and the FRET (665 nm emission). The negative control well values were averaged to obtain the mean minimum. The positive “no inhibitor” control wells were averaged to obtain the mean maximum. Percent of maximal FRET was calculated using following equation:
% max FRET=100×[(FSRcmpd−FSRmean min)/(FSRmean max−FSRmean min)]
where FSR=FRET Signal ratio. % Max FRET curves were plotted in Activity Base (Excel) and the IC50(%), hill slope, z′ and % CV were determined. The mean IC50 and standard deviation will be derived from duplicate curves (singlet inhibition curves from two independent dilutions) using Microsoft Excel.

Structure (SMILES) | IC50 (B cells in human blood) | IC50 (Bruton's Tyrosine Kinase)
Cn1cc(-c2cc3c(-c4ccc(CNC(=O)c5cc6c(s5)CCCC6)c(F)c4)ncnc3[nH]2)cn1 [Compound I-37, 4,5,6,7-Tetrahydro-benzo[b]thiophene-2-carboxylic acid 2-fluoro-4-[6-(1-methyl-1H-pyrazol-4-yl)-7H-pyrrolo[2,3-d]pyrimidin-4-yl]-benzylamide] | 655 nM | 0.3 nM
Cn1cc(-c2cc3c(N4CCC(CNC(=O)c5ccc(C(C)(C)C)cc5)CC4)ncnc3[nH]2)cn1 [Compound I-20, 4-tert-Butyl-N-{1-[6-(1-methyl-1H-pyrazol-4-yl)-7H-pyrrolo[2,3-d]pyrimidin-4-yl]-piperidin-4-ylmethyl}-benzamide] | 3000 nM | 62 nM
CN(Cc1ccc(-c2ncnc3[nH]c(-c4cnn(C)c4)cc23)cc1F)C(=O)c1ccc(C(C)(C)C)cc1 [Compound I-31, 4-tert-Butyl-N-{2-fluoro-4-[6-(1-methyl-1H-pyrazol-4-yl)-7H-pyrrolo[2,3-d]pyrimidin-4-yl]-benzyl}-N-methyl-benzamide] | 6050 nM | 20 nM
Cn1cc(-c2cc3c(-c4ccc(CNC(=O)c5ccc(C6CC6)cc5)cc4)ncnc3[nH]2)cn1 [Compound I-22, 4-Cyclopropyl-N-{4-[6-(1-methyl-1H-pyrazol-4-yl)-7H-pyrrolo[2,3-d]pyrimidin-4-yl]-benzyl}-benzamide] | 5480 nM | 8 nM
CN(C)CCn1cc(-c2cc3c(-c4ccc(CNC(=O)N5CC(OC(C)(C)C)C5)c(F)c4)ncnc3[nH]2)cn1 [Compound I-43, 3-tert-Butoxy-azetidine-1-carboxylic acid 4-{6-[1-(2-dimethylamino-ethyl)-1H-pyrazol-4-yl]-7H-pyrrolo[2,3-d]pyrimidin-4-yl}-2-fluoro-benzylamide] | 276 nM | 0.6 nM
Cn1cc(-c2cc3c(-c4ccc(CNC(=O)c5ccc(C6(C)COC6)cc5)cc4)ncnc3[nH]2)cn1 [Compound I-25, 4-(3-Methyl-oxetan-3-yl)-N-{4-[6-(1-methyl-1H-pyrazol-4-yl)-7H-pyrrolo[2,3-d]pyrimidin-4-yl]-benzyl}-benzamide] | 28900 nM | 44 nM
Cn1cc(-c2cc3c(-c4ccc(CNC(=O)c5nc(C(C)(C)C)no5)c(F)c4)ncnc3[nH]2)cn1 [Compound I-49, 3-tert-Butyl-[1,2,4]oxadiazole-5-carboxylic acid 2-fluoro-4-[6-(1-methyl-1H-pyrazol-4-yl)-7H-pyrrolo[2,3-d]pyrimidin-4-yl]-benzylamide] | 2 nM | 0.11 nM
Cn1cc(-c2cc3c(-c4ccc(CNC(=O)c5ccc(C(C)(C)O)cc5)c(F)c4)ncnc3[nH]2)cn1 [Compound I-38, N-{2-Fluoro-4-[6-(1-methyl-1H-pyrazol-4-yl)-7H-pyrrolo[2,3-d]pyrimidin-4-yl]-benzyl}-4-(1-hydroxy-1-methyl-ethyl)-benzamide] | 3270 nM | 3 nM
Cn1cc(-c2cc3c(-c4ccc(CNC(=O)c5ccc(C(C)(C)C#N)cc5)c(F)c4)ncnc3[nH]2)cn1 [Compound I-36, 4-(Cyano-dimethyl-methyl)-N-{2-fluoro-4-[6-(1-methyl-1H-pyrazol-4-yl)-7H-pyrrolo[2,3-d]pyrimidin-4-yl]-benzyl}-benzamide] | 6740 nM | 4 nM
CN(C)CCn1cc(-c2cc3c(-c4ccc(CNC(=O)c5ccc(C(C)(C)C)cc5)c(F)c4)ncnc3[nH]2)cn1 [Compound I-42, 4-tert-Butyl-N-(4-{6-[1-(2-dimethylamino-ethyl)-1H-pyrazol-4-yl]-7H-pyrrolo[2,3-d]pyrimidin-4-yl}-2-fluoro-benzyl)-benzamide] | 230 nM | 0.5 nM
CC(C)(C)c1ccc(C(=O)NCc2ccc(-c3ncnc4[nH]c(-c5cnn(CCO)c5)cc34)cc2F)cc1 [Compound I-30, 4-tert-Butyl-N-(2-fluoro-4-{6-[1-(2-hydroxy-ethyl)-1H-pyrazol-4-yl]-7H-pyrrolo[2,3-d]pyrimidin-4-yl}-benzyl)-benzamide] | 1040 nM | 0.7 nM
Cc1ccc(C(=O)NCc2ccc(-c3ncnc4[nH]c(-c5cnn(C)c5)cc34)cc2F)s1 [Compound I-29, 5-Methyl-thiophene-2-carboxylic acid 2-fluoro-4-[6-(1-methyl-1H-pyrazol-4-yl)-7H-pyrrolo[2,3-d]pyrimidin-4-yl]-benzylamide] | 470 nM | 3 nM
Cn1cc(-c2cc3c(-c4ccc(CNC(=O)c5cc(C(C)(C)C)on5)c(F)c4)ncnc3[nH]2)cn1 [Compound I-34, 5-tert-Butyl-isoxazole-3-carboxylic acid 2-fluoro-4-[6-(1-methyl-1H-pyrazol-4-yl)-7H-pyrrolo[2,3-d]pyrimidin-4-yl]-benzylamide] | 76 nM | 0.2 nM
Cn1cc(-c2cc3c(-c4ccc(CNC(=O)c5ccc(C(C)(C)C)cc5)cc4)ncnc3[nH]2)cn1 [Compound I-21, 4-tert-Butyl-N-{4-[6-(1-methyl-1H-pyrazol-4-yl)-7H-pyrrolo[2,3-d]pyrimidin-4-yl]-benzyl}-benzamide] | 1400 nM | 7 nM
Cn1cc(-c2cc3c(-c4ccc(CNC(=O)N5CC(OC(C)(C)C)C5)c(F)c4)ncnc3[nH]2)cn1 [Compound I-40, 3-tert-Butoxy-azetidine-1-carboxylic acid 2-fluoro-4-[6-(1-methyl-1H-pyrazol-4-yl)-7H-pyrrolo[2,3-d]pyrimidin-4-yl]-benzylamide] | 52 nM | 0.6 nM
CN(C)CCn1cc(-c2cc3c(-c4ccc(CNC(=O)N5Cc6ccccc6C5)c(F)c4)ncnc3[nH]2)cn1 [Compound I-44, 1,3-Dihydro-isoindole-2-carboxylic acid 4-{6-[1-(2-dimethylamino-ethyl)-1H-pyrazol-4-yl]-7H-pyrrolo[2,3-d]pyrimidin-4-yl}-2-fluoro-benzylamide] | 188 nM | 0.52 nM
Cn1cc(-c2cc3c(-c4ccc(CNC(=O)c5cc(C(C)(C)C)no5)c(F)c4)ncnc3[nH]2)cn1 [Compound I-39, 3-tert-Butyl-isoxazole-5-carboxylic acid 2-fluoro-4-[6-(1-methyl-1H-pyrazol-4-yl)-7H-pyrrolo[2,3-d]pyrimidin-4-yl]-benzyl amide] | 28 nM | 0.2 nM
Cn1cc(-c2cc3c(-c4ccc(CNC(=O)N5Cc6ccccc6C5)c(F)c4)ncnc3[nH]2)cn1 [Compound I-41, 1,3-Dihydro-isoindole-2-carboxylic acid 2-fluoro-4-[6-(1-methyl-1H-pyrazol-4-yl)-7H-pyrrolo[2,3-d]pyrimidin-4-yl]-benzylamide] | 154 nM | 0.6 nM
Cn1cc(-c2cc3c(-c4ccc(CNC(=O)c5ccc(C(C)(C)C)nc5)c(F)c4)ncnc3[nH]2)cn1 [Compound I-28, 6-tert-Butyl-N-{2-fluoro-4-[6-(1-methyl-1H-pyrazol-4-yl)-7H-pyrrolo[2,3-d]pyrimidin-4-yl]-benzyl}-nicotinamide] | 2540 nM | 4 nM
